PMC4329833 (Journal of Medicinal Chemistry, 2014)
Blank lines part the entries; values can stand above or below the molecule they belong to.

Key:
rat nNOS [1] = molecular target: T1, rat nNOS (Rattus norvegicus, UniProt P29476); experiment: biochemical
dopamine D3 receptor = dopamine D3 receptor (Homo sapiens, UniProt P35462); experiment: NIMH PDSP CNS receptor radioligand binding
serotonin 5-HT2A = serotonin 5-HT2A (Homo sapiens, UniProt P28223); experiment: NIMH PDSP CNS receptor radioligand binding
CYP2D6 = CYP2D6 (Homo sapiens, UniProt P10635); experiment: CYP inhibition assay in human liver microsomes; type: in vitro ADME; details: 10 μM
CYP2C19 = CYP2C19 (Homo sapiens, UniProt P33261); experiment: CYP inhibition assay in human liver microsomes; type: in vitro ADME; details: 10 μM
serotonin 5-HT1A = molecular target: T2, serotonin 5-HT1A (Homo sapiens, UniProt P08908); experiment: NIMH PDSP CNS receptor radioligand binding
T2 sequence (P08908 1-422): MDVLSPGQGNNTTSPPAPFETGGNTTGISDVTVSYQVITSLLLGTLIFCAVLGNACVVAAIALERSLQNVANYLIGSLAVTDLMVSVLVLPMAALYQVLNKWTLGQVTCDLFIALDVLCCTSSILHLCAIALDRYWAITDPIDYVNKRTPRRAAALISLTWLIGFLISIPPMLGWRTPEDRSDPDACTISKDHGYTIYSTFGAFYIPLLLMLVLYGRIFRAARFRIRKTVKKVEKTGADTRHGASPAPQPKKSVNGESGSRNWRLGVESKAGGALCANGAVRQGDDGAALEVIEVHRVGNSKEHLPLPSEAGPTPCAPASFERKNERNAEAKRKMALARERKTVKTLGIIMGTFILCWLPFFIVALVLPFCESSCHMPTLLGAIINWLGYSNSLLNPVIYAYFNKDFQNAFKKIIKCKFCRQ

CYP3A4 = CYP3A4 (Homo sapiens, UniProt P08684); experiment: CYP inhibition assay in human liver microsomes; type: in vitro ADME; details: 10 μM
rat nNOS [2] = molecular target: T1, rat nNOS; details: ratio of respective Ki values (eNOS vs rnNOS)
[3] = cited from earlier work

T1 sequence (P29476 whole entry): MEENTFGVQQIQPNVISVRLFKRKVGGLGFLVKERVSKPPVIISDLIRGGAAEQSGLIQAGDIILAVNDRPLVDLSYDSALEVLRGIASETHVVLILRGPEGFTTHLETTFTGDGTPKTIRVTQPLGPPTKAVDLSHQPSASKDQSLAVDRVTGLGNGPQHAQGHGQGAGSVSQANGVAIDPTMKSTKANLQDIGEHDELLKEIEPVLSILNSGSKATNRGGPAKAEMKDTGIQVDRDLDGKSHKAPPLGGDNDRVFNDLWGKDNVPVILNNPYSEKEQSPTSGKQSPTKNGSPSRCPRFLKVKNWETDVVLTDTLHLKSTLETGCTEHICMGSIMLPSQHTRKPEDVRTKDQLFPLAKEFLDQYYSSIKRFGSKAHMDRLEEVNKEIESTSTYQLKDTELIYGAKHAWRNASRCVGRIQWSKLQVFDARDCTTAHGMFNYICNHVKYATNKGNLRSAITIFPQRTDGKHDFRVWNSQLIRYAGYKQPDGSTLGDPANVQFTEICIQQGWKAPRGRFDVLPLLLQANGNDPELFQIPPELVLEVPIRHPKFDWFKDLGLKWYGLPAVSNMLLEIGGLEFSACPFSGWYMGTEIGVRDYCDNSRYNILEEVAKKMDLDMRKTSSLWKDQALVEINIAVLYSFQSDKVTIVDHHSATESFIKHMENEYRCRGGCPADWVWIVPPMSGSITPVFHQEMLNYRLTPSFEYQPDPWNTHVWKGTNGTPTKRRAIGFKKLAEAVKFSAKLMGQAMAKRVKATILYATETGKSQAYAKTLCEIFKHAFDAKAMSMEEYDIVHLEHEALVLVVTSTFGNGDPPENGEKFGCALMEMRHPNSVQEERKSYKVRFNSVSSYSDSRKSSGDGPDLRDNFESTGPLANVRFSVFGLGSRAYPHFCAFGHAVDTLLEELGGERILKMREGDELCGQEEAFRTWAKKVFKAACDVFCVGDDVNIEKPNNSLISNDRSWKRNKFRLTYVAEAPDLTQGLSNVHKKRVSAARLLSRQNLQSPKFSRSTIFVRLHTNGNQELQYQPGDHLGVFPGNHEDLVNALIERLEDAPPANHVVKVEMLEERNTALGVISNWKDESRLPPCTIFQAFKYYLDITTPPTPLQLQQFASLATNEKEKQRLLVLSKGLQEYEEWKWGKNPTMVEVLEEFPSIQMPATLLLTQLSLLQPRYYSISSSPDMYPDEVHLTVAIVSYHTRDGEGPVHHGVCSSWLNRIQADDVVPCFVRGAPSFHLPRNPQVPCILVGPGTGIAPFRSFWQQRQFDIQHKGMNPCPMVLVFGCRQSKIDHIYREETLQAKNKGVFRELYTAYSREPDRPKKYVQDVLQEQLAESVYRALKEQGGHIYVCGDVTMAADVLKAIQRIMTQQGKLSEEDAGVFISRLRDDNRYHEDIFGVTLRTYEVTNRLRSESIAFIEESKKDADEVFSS
dopamine D3 receptor, sequence (P35462 whole entry, species assumed): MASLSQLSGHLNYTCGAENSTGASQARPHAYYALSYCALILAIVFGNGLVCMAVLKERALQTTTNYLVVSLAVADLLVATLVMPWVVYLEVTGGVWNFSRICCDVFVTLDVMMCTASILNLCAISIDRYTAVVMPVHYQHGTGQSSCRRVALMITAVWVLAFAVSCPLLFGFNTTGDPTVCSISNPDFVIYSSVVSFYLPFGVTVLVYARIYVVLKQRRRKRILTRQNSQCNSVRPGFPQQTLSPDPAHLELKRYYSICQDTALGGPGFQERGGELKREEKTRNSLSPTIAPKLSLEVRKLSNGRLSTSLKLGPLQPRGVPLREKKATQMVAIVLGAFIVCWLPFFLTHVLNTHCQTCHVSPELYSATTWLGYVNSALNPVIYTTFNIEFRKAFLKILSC
CYP2D6, sequence (P10635 whole entry): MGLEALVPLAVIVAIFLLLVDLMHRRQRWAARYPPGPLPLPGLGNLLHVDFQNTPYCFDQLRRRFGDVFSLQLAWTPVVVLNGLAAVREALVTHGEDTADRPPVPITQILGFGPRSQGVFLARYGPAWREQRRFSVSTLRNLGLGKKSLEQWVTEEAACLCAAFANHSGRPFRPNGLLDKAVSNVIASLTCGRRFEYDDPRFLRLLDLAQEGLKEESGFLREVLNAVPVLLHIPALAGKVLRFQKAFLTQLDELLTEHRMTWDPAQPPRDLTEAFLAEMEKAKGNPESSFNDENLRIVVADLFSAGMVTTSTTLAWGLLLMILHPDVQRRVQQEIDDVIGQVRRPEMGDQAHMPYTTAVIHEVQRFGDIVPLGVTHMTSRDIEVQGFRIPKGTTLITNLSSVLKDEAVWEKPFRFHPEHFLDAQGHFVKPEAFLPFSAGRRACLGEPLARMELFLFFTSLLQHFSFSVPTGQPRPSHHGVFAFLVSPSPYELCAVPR
CYP3A4, sequence (P08684 whole entry): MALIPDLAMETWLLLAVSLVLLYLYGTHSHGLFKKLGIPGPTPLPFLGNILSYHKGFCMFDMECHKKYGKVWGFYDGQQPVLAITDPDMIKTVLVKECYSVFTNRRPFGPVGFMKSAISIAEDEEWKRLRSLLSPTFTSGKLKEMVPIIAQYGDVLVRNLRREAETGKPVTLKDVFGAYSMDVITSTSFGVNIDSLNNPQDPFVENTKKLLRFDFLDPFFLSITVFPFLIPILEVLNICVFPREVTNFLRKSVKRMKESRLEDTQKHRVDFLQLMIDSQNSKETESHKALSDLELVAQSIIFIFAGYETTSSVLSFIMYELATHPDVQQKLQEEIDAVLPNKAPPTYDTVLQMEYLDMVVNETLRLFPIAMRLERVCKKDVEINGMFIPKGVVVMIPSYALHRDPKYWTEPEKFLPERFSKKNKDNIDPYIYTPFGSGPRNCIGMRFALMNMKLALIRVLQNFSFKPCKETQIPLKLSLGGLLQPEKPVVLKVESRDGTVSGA
serotonin 5-HT2A, sequence (P28223 whole entry): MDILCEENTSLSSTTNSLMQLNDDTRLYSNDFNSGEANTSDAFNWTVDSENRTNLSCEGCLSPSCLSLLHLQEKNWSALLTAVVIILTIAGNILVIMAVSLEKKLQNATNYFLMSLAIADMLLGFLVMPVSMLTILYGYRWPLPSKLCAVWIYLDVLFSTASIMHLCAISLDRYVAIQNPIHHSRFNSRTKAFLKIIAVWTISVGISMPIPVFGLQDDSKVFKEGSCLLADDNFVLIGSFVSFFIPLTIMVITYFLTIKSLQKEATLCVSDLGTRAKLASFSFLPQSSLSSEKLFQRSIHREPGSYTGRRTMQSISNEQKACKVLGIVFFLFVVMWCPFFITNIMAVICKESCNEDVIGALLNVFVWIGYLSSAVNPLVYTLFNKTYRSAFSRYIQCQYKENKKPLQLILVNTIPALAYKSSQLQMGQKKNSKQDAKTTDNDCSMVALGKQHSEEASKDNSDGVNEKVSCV
CYP2C19, sequence (P33261 whole entry): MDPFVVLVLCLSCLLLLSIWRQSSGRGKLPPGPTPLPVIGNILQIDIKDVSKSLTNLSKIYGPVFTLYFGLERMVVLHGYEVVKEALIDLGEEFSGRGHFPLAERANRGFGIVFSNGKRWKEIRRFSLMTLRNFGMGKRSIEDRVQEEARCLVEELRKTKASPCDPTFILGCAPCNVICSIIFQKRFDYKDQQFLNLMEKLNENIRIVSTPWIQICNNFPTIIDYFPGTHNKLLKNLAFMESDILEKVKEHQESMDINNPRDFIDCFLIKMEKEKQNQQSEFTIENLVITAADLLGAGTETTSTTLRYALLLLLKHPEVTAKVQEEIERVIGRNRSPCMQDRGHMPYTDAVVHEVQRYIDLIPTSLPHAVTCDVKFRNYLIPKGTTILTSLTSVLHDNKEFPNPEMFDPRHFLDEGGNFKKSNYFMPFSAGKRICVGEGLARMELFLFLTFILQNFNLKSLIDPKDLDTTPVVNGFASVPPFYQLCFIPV

SMILES: Fc1cccc(CCN2CCN(c3ccnc(-n4ccnc4)n3)CC2)c1 [Compound 4, 4-[4-(3-Fluorophenethyl)-1-piperazyl]-2-(1H-imidazol-1-yl)pyrimidine]
- Ki (rat nNOS [1]): ~5 µM

- Ki (dopamine D3 receptor): ≥ 500 nM
- Ki (serotonin 5-HT2A): ≥ 500 nM
- decrease of CYP2D6 activity (CYP2D6): more than 70%
- decrease of CYP2C19 activity (CYP2C19): more than 70%
- Ki (serotonin 5-HT1A): ≥ 500 nM
- decrease of CYP3A4 activity (CYP3A4): more than 70%
SMILES: Cl.Fc1cccc(CCCNCCc2ccnc(-n3ccnc3)n2)c1 [Compound 9, N-2-[2-(1H-Imidazol-1-yl)pyrimidin-4-yl]ethyl-3-(3-fluorophenyl)propan-1-amine Dihydrochloride]

SMILES: Cl.Fc1cccc(CCNCCNc2ccnc(-n3ccnc3)n2)c1 [Compound 5, N^1-[2-(1H-Imidazol-1-yl)pyrimidin-4-yl]-N^2-(3-fluorophenethyl)ethane-1,2-diamine Trihydrochloride]
- selectivity n/e (rat nNOS [2]): 100

SMILES: c1c[nH]cn1 [imidazole]
- pKa of conjugate acid [3]: 6.9
